In patent US5622962A, “5α-reductase inhibitors” (priority 1995, dated 1997):

Assays:
[1] = biological target: T1, Type I 5α-Reductase from Human Scalp (Homo sapiens, UniProt P18405); assay: Human Type I 5α-reductase assay (conversion of [3H]-testosterone to 5α-reduced metabolites); type: biochemical; conditions: 50 nM [3H]-testosterone, pH 7.5, 25°, 180 min, compared to control reaction mixtures; for inhibition at 0.3 µM: pH 7.5, 0.3 μM, read-out: percent inhibition of Type I AR
T1 construct: Scalp punch biopsies from graft recipient sites were obtained from human hair transplant procedures; from tissue; host or cells: human scalp punch biopsies (hair transplant graft recipient sites), homogenate, 100,000×g pellet
T1 sequence (P18405 1-259): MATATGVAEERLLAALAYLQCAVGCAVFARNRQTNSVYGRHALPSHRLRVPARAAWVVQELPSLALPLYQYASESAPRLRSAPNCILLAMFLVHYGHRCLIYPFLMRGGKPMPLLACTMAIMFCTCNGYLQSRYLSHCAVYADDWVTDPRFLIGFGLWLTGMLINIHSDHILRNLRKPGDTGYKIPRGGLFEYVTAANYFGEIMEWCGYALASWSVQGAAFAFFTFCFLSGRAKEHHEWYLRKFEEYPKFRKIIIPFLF

[2] = biological target: T2, Type II 5α-Reductase from Human Prostate (Homo sapiens, UniProt P31213); assay: Human Type II 5α-reductase assay (conversion of [3H]-testosterone to 5α-reduced metabolites); type: biochemical; conditions: pH 5.5, 0.3 μM; sodium acetate pH 5.5, 25°, 30 min; compared to control reaction mixtures; read-out: percent inhibition of Type II AR
T2 construct: The same procedure as above was used for preparations using tissue from prostate surgery; from tissue; host or cells: human prostate tissue from surgery, homogenate, 100,000×g pellet
T2 sequence (P31213 1-254): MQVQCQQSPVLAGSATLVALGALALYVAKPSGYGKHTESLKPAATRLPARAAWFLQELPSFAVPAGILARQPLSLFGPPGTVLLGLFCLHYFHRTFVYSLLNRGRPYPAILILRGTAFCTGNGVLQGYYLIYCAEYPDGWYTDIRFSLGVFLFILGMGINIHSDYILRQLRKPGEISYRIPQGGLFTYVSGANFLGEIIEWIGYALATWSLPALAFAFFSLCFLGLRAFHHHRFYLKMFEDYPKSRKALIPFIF

| inhibition at 0.3 µM [1] [%] | inhibition at 0.3 µM [2] [%] | percent inhibition of Type I AR ([1]; 0.3 μM) [%] | SMILES |
| --- | --- | --- | --- |
| 22 | 48 | – | C[C@]12CCC(=O)N[C@@H]1CCc1cc(Sc3cccc4cccnc34)ccc12 [Example 20, (+)-(4aR)-(10bR)-8-(8-quinolinylthio)-10b-methyl-1,2,3,4,4a,5,6,10b-octahydrobenzo[f]quinolin-3-one] |
| 27 | 42 | – | C[C@]12CCC(=O)N[C@@H]1CCc1cc(Sc3ccccn3)ccc12 [Example 21, (4aR)-(10bR)-8-(2-pyridinylthio)-10b-methyl-1,2,3,4,4a,5,6,10b-octahydrobenzo[f]quinolin-3-one] |
| 59 | 31 | – | C[C@]12CCC(=O)N[C@@H]1CCc1cc(SCc3ccccc3)ccc12 [Example 23, (4aR)-(10bR)-8-benzylthio-10b-methyl-1,2,3,4,4a,5,6,10b-octahydrobenzo[f]quinolin-3-one] |
| 86 | – | – | CN1C(=O)CC[C@]2(C)c3ccc(-c4cccc(F)c4F)cc3CC[C@@H]12 [Example 26, (+)-(4aR)-(10bR)-4-methyl-8-(2,3-difluorophenyl)-10b-methyl-1,2,3,4,4a,5,6,10b-octahydrobenzo[f]quinolin-3-one] |
| 92 | – | – | CN1C(=O)CC[C@]2(C)c3ccc(-c4ccc(F)c(F)c4)cc3CC[C@@H]12 [Example 27, (+)-(4aR)-(10bR)-4-methyl-8-(3,4-difluorophenyl)-10b-methyl-1,2,3,4,4a,5,6,10b-octahydrobenzo[f]quinolin-3-one] |
| 88 | – | – | CN1C(=O)CC[C@]2(C)c3ccc(Sc4ccccc4Cl)cc3CC[C@@H]12 [Example 99, (+)-(4aR)-(10bR)-4,10b-dimethyl-8-(2-chlorophenylthio)-1,2,3,4,-4a,5,6,10b-octahydrobenzo[f]quinolin-3-one] |
| 84 | – | – | CN1C(=O)CC[C@]2(C)c3ccc(-c4ccc([N+](=O)[O-])cc4)cc3CC[C@@H]12 [Example 119, (+)-(4aR)-(10bR)-4-methyl-8-(4-nitrophenyl)-10b-methyl-1,2,3,4,4a,5,6,10b-octahydrobenzo[f]quinolin-3-one] |
| – | – | 11 | C[C@]12CCC(=O)N[C@@H]1CCc1cc(-c3cnc4ccccc4c3)ccc12 [Example 196, (+)-(4aR)-(10bR)-8-(3-quinolinyl)-10b-methyl-1,2,3,4,4a,-5,6,10b-octahydrobenzo[f]quinolin-3-one] |
| – | 27 | – | CN1C(=O)CC[C@]2(C)c3ccc(-c4cccc(NC(=O)c5ccccc5)c4)cc3CC[C@@H]12 [Example 273, (+)-(4aR)-(10bR)-4-methyl-8-(3-[benzoylamino]phenyl)-10b-methyl-1,2,3,4,4a,5,6,10b-octahydrobenzo[f]quinolin-3-one] |
| – | 28 | – | CN1C(=O)CC[C@]2(C)c3ccc(-c4cccs4)cc3CC[C@@H]12 [Example 278, (4aR)-(10bR)-4,10b-dimethyl-8-(2-thiophenyl)-1,2,3,4,4a,5,6,10b-octahydrobenzo[f]quinolin-3-one] |
| – | 44 | – | CN1C(=O)CC[C@]2(C)c3ccc(/C=C/c4cncc5ccccc45)cc3CC[C@@H]12 [Example 281, (4aR)-(10bR)-4,10b-dimethyl-8-(2-[4-isoquinolinyl]ethenyl)-1,2,3,4,4a,5,6,10b-octahydrobenzo[f]quinolin-3-one] |
| – | 37 | – | CN1C(=O)CC[C@]2(C)c3ccc(/C=C/c4cnc5ccccc5c4)cc3CC[C@@H]12 [Example 282, (4aR)-(10bR)-4,10b-dimethyl-8-(2-[3-quinolinyl]ethenyl)-1,2,3,4,4a,5,6,10b-octahydrobenzo[f]quinolin-3-one] |
| – | 37 | – | CN1C(=O)CC[C@]2(C)c3ccc(/C=C/c4ccc5ccccc5n4)cc3CC[C@@H]12 [Example 283, (4aR)-(10bR)-4,10b-dimethyl-8-(2-[2-quinolinyl]ethenyl)-1,2,3,4,4a,5,6,10b-octahydrobenzo[f]quinolin-3-one] |
| – | 19 | – | C[C@]12CCC(=O)N[C@@H]1CCc1cc(C(=O)Nc3ccccc3)ccc12 [Example 291, (+)-(4aR)-(10bR)-8-phenylcarboxamido-10b-methyl-1,2,3,4,4a,5,6,10b-octahydrobenzo[f]quinoline-3-one] |

The remaining lines, values behind:

| SMILES | inhibition at 0.3 µM [1] [%] | inhibition at 0.3 µM [2] [%] | percent inhibition of Type I AR ([1]; 0.3 μM) [%] |
| --- | --- | --- | --- |
| C[C@]12CCC(=O)N[C@@H]1CCc1cc(Sc3ccc(Cl)cc3)ccc12 [Example 5, (+)-(4aR)-(10bR)-8-(4-chlorophenylthio)-10b-methyl-1,2,3,4,4a,5,6,10b-octahydrobenzo [f]quinolin-3-one] | 44 | 0 | – |
| Cc1ccc(Sc2ccc3c(c2)CC[C@H]2NC(=O)CC[C@]32C)cc1 [Example 6, (+)-(4aR)-(10bR)-8-(4-methylphenylthio)-10b-methyl-1,2,3,4,4a,5,6,10b-octahydrobenzo [f]quinolin-3-one] | 11 | 23 | – |
| C[C@]12CCC(=O)N[C@@H]1CCc1cc(Sc3ccccc3Cl)ccc12 [Example 7] | 49 | 42 | – |
| C[C@]12CCC(=O)N[C@@H]1CCc1cc(Sc3cccc(Cl)c3)ccc12 [Example 8, (+)-(4aR)-(10bR)-8-(3-chlorophenylthio)-10b-methyl-1,2,3,4,4a,5,6,10b-octahydrobenzo[f]quinolin-3-one] | 22 | 59 | – |
| Cc1ccccc1Sc1ccc2c(c1)CC[C@H]1NC(=O)CC[C@]21C [Example 9, (+)-(4aR)-(10bR)-8-(2-methylphenylthio)-10b-methyl-1,2,3,4,4a,5,6,10b-octahydrobenzo[f]quinolin-3-one] | 3 | 31 | – |
| Cc1cccc(Sc2ccc3c(c2)CC[C@H]2NC(=O)CC[C@]32C)c1 [Example 10, (+)-(4aR)-(10bR)-8-(3-methylphenylthio)-10b-methyl-1,2,3,4,4a,5,6,10b-octahydrobenzo[f]quinolin-3-one] | 22 | 40 | – |
| C[C@]12CCC(=O)N[C@@H]1CCc1cc(Sc3cccc4ccccc34)ccc12 [Example 11, (+)-(4aR)-(10bR)-8-(1-naphthylthio)-10b-methyl-1,2,3,4,4a,5,6,10b-octahydrobenzo[f]quinolin-3-one] | 87 | 40 | – |
| COc1ccccc1Sc1ccc2c(c1)CC[C@H]1NC(=O)CC[C@]21C [Example 12, (+)-(4aR)-(10bR)-8-(2-methoxyphenylthio)-10b-methyl-1,2,3,4,4a,5,6,10b-octahydrobenzo[f]quinolin-3-one] | 16 | 22 | – |
| COc1ccc(Sc2ccc3c(c2)CC[C@H]2NC(=O)CC[C@]32C)cc1 [Example 13, (+)-(4aR)-(10bR)-8-(4-methoxyphenylthio)-10b-methyl-1,2,3,4,4a,5,6,10b-octahydrobenzo[f]quinolin-3-one] | 11 | 22 | – |
| C[C@]12CCC(=O)N[C@@H]1CCc1cc(Sc3ccc(F)cc3)ccc12 [Example 14, (+)-(4aR)-(10bR)-8-(4-fluorophenylthio)-10b-methyl-1,2,3,4,4a,5,6,10b-octahydrobenzo[f]quinolin-3-one] | 37 | 25 | – |
| COc1cccc(Sc2ccc3c(c2)CC[C@H]2NC(=O)CC[C@]32C)c1 [Example 15, (4aR)-(10bR)-8-(3-methoxyphenylthio)-10b-methyl-1,2,3,4,4a,5,6,10b-octahydrobenzo[f]quinolin-3-one] | 23 | 39 | – |
| C[C@]12CCC(=O)N[C@@H]1CCc1cc(Sc3cccc(F)c3)ccc12 [Example 16, (+)-(4aR)-(10bR)-8-(3-fluorophenylthio)-10b-methyl-1,2,3,4,4a,5,6,10b-octahydrobenzo[f]quinolin-3-one] | 14 | 28 | – |
| C[C@]12CCC(=O)N[C@@H]1CCc1cc(Sc3ccccc3F)ccc12 [Example 17, (+)-(4aR)-(10bR)-8-(2-fluorophenylthio)-10b-methyl-1,2,3,4,4a,5,6,10b-octahydrobenzo[f]quinolin-3-one] | 29 | 19 | – |
| C[C@]12CCC(=O)N[C@@H]1CCc1cc(Sc3cnc4ccccc4c3)ccc12 [Example 18, (4aR)-(10bR)-8-(3-quinolinylthio)-10b-methyl-1,2,3,4,4a,5,6,10b-octahydrobenzo[f]quinolin-3-one] | 7 | 15 | – |
| C[C@]12CCC(=O)N[C@@H]1CCc1cc(Sc3ccc4ccccc4n3)ccc12 [Example 19, (4aR)-(10bR)-8-(2-quinolinylthio)-10b-methyl-1,2,3,4,4a,5,6,10b-octahydrobenzo[f]quinolin-3-one] | 59 | 56 | – |
